# How the values were obtained:
# [1] = target: Bovine spleen cathepsin B (Bos taurus, UniProt P07688); type: biochemical
# [2] = test system: HeLa cells; settings: for cell death ratio: human
SMILES,cell death ratio [2],further results
"O=C(/C=C/c1ccccc1)N[C@H](COC(=O)c1ccccc1)C(=O)NC1CCCCC1 (single isomer, unassigned) [ent-3]",–,Inhibition (%) [1]: no inhibition; cytotoxicity (in words) [2]: no cytotoxicity
"COc1ccccc1/C=C/C(=O)N[C@@H](COC(=O)c1ccccc1)C(=O)NC1CCCCC1 [7f, (S)-N-(E)-2′-Methoxy-3-phenylprop-2-enoicserine(benzoyl)cyclohexylamide]",–,inhibitory activity relative to 3 (times) [1]: about 10 times; inhibitory mechanism (Lineweaver–Burk plot) [1]: competitive inhibition
"COc1cc(/C=C/C(=O)N[C@@H](COC(=O)c2ccccc2)C(=O)NC2CCCCC2)cc(OC)c1 [7h, (S)-N-(E)-3′,5′-Dimethoxy-3-phenylprop-2-enoicserine(benzoyl)cyclohexylamide]",less than 20%,–
"COc1cccc(/C=C/C(=O)N[C@@H](COC(=O)c2ccccc2)C(=O)NC2CCCCC2)c1 [7i, (S)-N-(E)-3′-Methoxy-3-phenylprop-2-enoicserine(benzoyl)cyclohexylamide]",less than 20%,–
"O=C(/C=C/c1ccc(OC(=O)c2ccccc2)cc1)N[C@@H](COC(=O)c1ccccc1)C(=O)NC1CCCCC1 [7j, (S)-N-(E)-4′-Benzoyloxy-3-phenylprop-2-enoicserine(benzoyl)cyclohexylamine]",less than 20%,–
"COc1cc(/C=C/C(=O)N[C@@H](COC(=O)c2ccccc2)C(=O)NC2CCCCC2)cc(OC)c1OC [7k, (S)-N-(E)-3′,4′,5′-Trimethoxy-3-phenylprop-2-enoicserine(benzoyl)cyclohexylamide]",less than 20%,–
"O=C(/C=C/c1ccccc1)N[C@@H](COC(=O)c1ccccc1)C(=O)NC1CCCCC1 [compound 3, (S)-N-Cinnamoyl serine(benzoyl)cyclohexylamide]",less than 20%,–
COc1cc(/C=C/C(=O)N[C@H](COC(=O)c2ccccc2)C(=O)NC2CCCCC2)cc(OC)c1OC [ent-7k],–,cytotoxicity (in words) [2]: no cytotoxicity

# — article PMC7111485 (Bioorganic & Medicinal Chemistry, 2016)
